Reference: ChEMBL document CHEMBL5543084, “Development of cannabidiol derivatives as potent broad-spectrum antibacterial agents with membrane-disruptive mechanism” (Eur J Med Chem, 2024)
Values after ≈ are worked out from the molar mass of the structure shown.

Assays:
Klebsiella pneumoniae [1] = assay: Antibacterial activity against Klebsiella pneumoniae ATCC 14581 assessed as inhibition of bacterial growth incubated for 24 hrs by broth dilution method; type: functional
Staphylococcus aureus [2] = assay: Antibacterial activity against methicillin-resistant Staphylococcus aureus N315 assessed as inhibition of bacterial growth incubated for 24 hrs by broth dilution method; type: functional
Staphylococcus aureus [3] = assay: Antibacterial activity against Staphylococcus aureus ATCC 29213 assessed as inhibition of bacterial growth incubated for 24 hrs by broth dilution method; type: functional
Acinetobacter baumannii [4] = assay: Antibacterial activity against Acinetobacter baumannii R2889 assessed as inhibition of bacterial growth incubated for 24 hrs by broth dilution method; type: functional
Acinetobacter baumannii [5] = assay: Antibacterial activity against Acinetobacter baumannii ATCC 17978 assessed as inhibition of bacterial growth incubated for 24 hrs by broth dilution method; type: functional
Klebsiella pneumoniae [6] = assay: Antibacterial activity against Klebsiella pneumoniae ATCC 10031 assessed as inhibition of bacterial growth incubated for 24 hrs by broth dilution method; type: functional
[7] = Hemolytic activity against rabbit blood cells incubated for 1 hr relative to control; type: toxicity, cell-based, Oryctolagus cuniculus, Erythrocyte; details: rabbit blood cells (erythrocytes)
Staphylococcus aureus [8] = assay: Antibacterial activity against methicillin-resistant Staphylococcus aureus NCTC 10442 assessed as inhibition of bacterial growth incubated for 24 hrs by broth dilution method; type: functional
Pseudomonas aeruginosa = assay: Antibacterial activity against Pseudomonas aeruginosa ATCC 9027 assessed as inhibition of bacterial growth incubated for 24 hrs by broth dilution method; type: functional
Escherichia coli = assay: Antibacterial activity against Escherichia coli ATCC 25922 assessed as inhibition of bacterial growth incubated for 24 hrs by broth dilution method; type: functional

C=C(C)[C@@H]1CCC(C)=C[C@H]1c1c(OCCCBr)cc(CCCCC)cc1OCCCBr
MIC (Klebsiella pneumoniae [1]): > 50 µg/mL | MIC (Staphylococcus aureus [2]): > 50 µg/mL | MIC (Staphylococcus aureus [3]): > 50 µg/mL | MIC (Acinetobacter baumannii [4]): > 50 µg/mL | MIC (Acinetobacter baumannii [5]): > 50 µg/mL | MIC (Klebsiella pneumoniae [6]): > 50 µg/mL | HC50 at 1 h [7]: > 200 µg/mL | MIC (Staphylococcus aureus [8]): > 50 µg/mL | MIC (Pseudomonas aeruginosa): > 50 µg/mL | MIC (Escherichia coli): > 50 µg/mL

C=C(C)[C@@H]1CCC(C)=C[C@H]1c1c(OCCCCI)cc(CCCCC)cc1OCCCCI
MIC (Klebsiella pneumoniae [1]): > 50 µg/mL | MIC (Staphylococcus aureus [2]): > 50 µg/mL | MIC (Staphylococcus aureus [3]): > 50 µg/mL | MIC (Acinetobacter baumannii [4]): > 50 µg/mL | MIC (Acinetobacter baumannii [5]): > 50 µg/mL | MIC (Klebsiella pneumoniae [6]): > 50 µg/mL | HC50 at 1 h [7]: > 200 µg/mL | MIC (Staphylococcus aureus [8]): > 50 µg/mL | MIC (Pseudomonas aeruginosa): > 50 µg/mL | MIC (Escherichia coli): > 100 µg/mL

C=C(C)[C@@H]1CCC(C)=C[C@H]1c1c(OCCCCCCN)cc(CCCCC)cc1OCCCCCCN
MIC (Klebsiella pneumoniae [1]): 0.78 µg/mL (≈ 1.52 µM) | MIC (Staphylococcus aureus [2]): 1.56 µg/mL (≈ 3.04 µM) | MIC (Staphylococcus aureus [3]): 1.56 µg/mL (≈ 3.04 µM) | MIC (Acinetobacter baumannii [4]): 3.12 µg/mL (≈ 6.09 µM) | MIC (Acinetobacter baumannii [5]): 3.12 µg/mL (≈ 6.09 µM) | MIC (Klebsiella pneumoniae [6]): 1.56 µg/mL (≈ 3.04 µM) | HC50 at 1 h [7]: 59.7 µg/mL | MIC (Staphylococcus aureus [8]): 0.78 µg/mL (≈ 1.52 µM) | MIC (Pseudomonas aeruginosa): > 50 µg/mL | MIC (Escherichia coli): 3.12 µg/mL (≈ 6.09 µM)

C=C(C)[C@@H]1CCC(C)=C[C@H]1c1c(OCCCCCCCCCCBr)cc(CCCCC)cc1OCCCCCCCCCCBr
MIC (Klebsiella pneumoniae [1]): > 50 µg/mL | MIC (Staphylococcus aureus [2]): > 50 µg/mL | MIC (Staphylococcus aureus [3]): > 50 µg/mL | MIC (Acinetobacter baumannii [4]): > 50 µg/mL | MIC (Acinetobacter baumannii [5]): > 50 µg/mL | MIC (Klebsiella pneumoniae [6]): > 50 µg/mL | HC50 at 1 h [7]: > 200 µg/mL | MIC (Staphylococcus aureus [8]): > 50 µg/mL | MIC (Pseudomonas aeruginosa): > 50 µg/mL | MIC (Escherichia coli): > 50 µg/mL

C=C(C)[C@@H]1CCC(C)=C[C@H]1c1c(OCCCCN(C)CCCN(C)CCCNC)cc(CCCCC)cc1OCCCCN(C)CCCN(C)CCCNC
MIC (Klebsiella pneumoniae [1]): 6.25 µg/mL (≈ 8.12 µM) | MIC (Staphylococcus aureus [2]): 3.12 µg/mL (≈ 4.06 µM) | MIC (Staphylococcus aureus [3]): 1.56 µg/mL (≈ 2.03 µM) | MIC (Acinetobacter baumannii [4]): 3.12 µg/mL (≈ 4.06 µM) | MIC (Acinetobacter baumannii [5]): 6.25 µg/mL (≈ 8.12 µM) | MIC (Klebsiella pneumoniae [6]): 6.25 µg/mL (≈ 8.12 µM) | HC50 at 1 h [7]: > 200 µg/mL | MIC (Staphylococcus aureus [8]): 1.56 µg/mL (≈ 2.03 µM) | MIC (Pseudomonas aeruginosa): 6.25 µg/mL (≈ 8.12 µM) | MIC (Escherichia coli): 3.12 µg/mL (≈ 4.06 µM)

C=C(C)[C@@H]1CCC(C)=C[C@H]1c1c(OCC(=O)N[C@@H](CCCNC(=N)N)C(=O)N[C@@H](CCCNC(=N)N)C(=O)OC)cc(CCCCC)cc1OCC(=O)N[C@@H](CCCNC(=N)N)C(=O)N[C@@H](CCCNC(=N)N)C(=O)OC
MIC (Klebsiella pneumoniae [1]): > 50 µg/mL | MIC (Staphylococcus aureus [2]): 1.56 µg/mL (≈ 1.44 µM) | MIC (Staphylococcus aureus [3]): 1.56 µg/mL (≈ 1.44 µM) | MIC (Acinetobacter baumannii [4]): 50 µg/mL (≈ 46.2 µM) | MIC (Acinetobacter baumannii [5]): 25 µg/mL (≈ 23.1 µM) | MIC (Klebsiella pneumoniae [6]): 50 µg/mL (≈ 46.2 µM) | HC50 at 1 h [7]: > 200 µg/mL | MIC (Staphylococcus aureus [8]): 1.56 µg/mL (≈ 1.44 µM) | MIC (Pseudomonas aeruginosa): 50 µg/mL (≈ 46.2 µM) | MIC (Escherichia coli): 50 µg/mL (≈ 46.2 µM)

C=C(C)[C@@H]1CCC(C)=C[C@H]1c1c(OCCCCN2CCSCC2)cc(CCCCC)cc1OCCCCN1CCSCC1
MIC (Klebsiella pneumoniae [1]): > 50 µg/mL | MIC (Staphylococcus aureus [2]): > 50 µg/mL | MIC (Staphylococcus aureus [3]): > 50 µg/mL | MIC (Acinetobacter baumannii [4]): > 50 µg/mL | MIC (Acinetobacter baumannii [5]): > 50 µg/mL | MIC (Klebsiella pneumoniae [6]): > 50 µg/mL | HC50 at 1 h [7]: > 200 µg/mL | MIC (Staphylococcus aureus [8]): > 50 µg/mL | MIC (Pseudomonas aeruginosa): > 50 µg/mL | MIC (Escherichia coli): > 100 µg/mL

C=C(C)[C@@H]1CCC(C)=C[C@H]1c1c(OCCCN)cc(CCCCC)cc1OCCCN
MIC (Klebsiella pneumoniae [1]): 12.5 µg/mL (≈ 29.2 µM) | MIC (Staphylococcus aureus [2]): 6.25 µg/mL (≈ 14.6 µM) | MIC (Staphylococcus aureus [3]): 6.25 µg/mL (≈ 14.6 µM) | MIC (Acinetobacter baumannii [4]): 12.5 µg/mL (≈ 29.2 µM) | MIC (Acinetobacter baumannii [5]): 6.25 µg/mL (≈ 14.6 µM) | MIC (Klebsiella pneumoniae [6]): 6.25 µg/mL (≈ 14.6 µM) | HC50 at 1 h [7]: > 200 µg/mL | MIC (Staphylococcus aureus [8]): 6.25 µg/mL (≈ 14.6 µM) | MIC (Pseudomonas aeruginosa): > 50 µg/mL | MIC (Escherichia coli): 6.25 µg/mL (≈ 14.6 µM)

C=C(C)[C@@H]1CCC(C)=C[C@H]1c1c(OCCCCNCCC)cc(CCCCC)cc1OCCCCNCCC
MIC (Klebsiella pneumoniae [1]): 25 µg/mL (≈ 46.2 µM) | MIC (Staphylococcus aureus [2]): 3.12 µg/mL (≈ 5.78 µM) | MIC (Staphylococcus aureus [3]): 3.12 µg/mL (≈ 5.78 µM) | MIC (Acinetobacter baumannii [4]): 12.5 µg/mL (≈ 23.1 µM) | MIC (Acinetobacter baumannii [5]): 12.5 µg/mL (≈ 23.1 µM) | MIC (Klebsiella pneumoniae [6]): 12.5 µg/mL (≈ 23.1 µM) | HC50 at 1 h [7]: 79.3 µg/mL | MIC (Staphylococcus aureus [8]): 1.56 µg/mL (≈ 2.88 µM) | MIC (Pseudomonas aeruginosa): > 50 µg/mL | MIC (Escherichia coli): 25 µg/mL (≈ 46.2 µM)

C=C(C)[C@@H]1CCC(C)=C[C@H]1c1c(OCCCCN(C)C)cc(CCCCC)cc1OCCCCN(C)C
MIC (Klebsiella pneumoniae [1]): 6.25 µg/mL (≈ 12.2 µM) | MIC (Staphylococcus aureus [2]): 3.12 µg/mL (≈ 6.09 µM) | MIC (Staphylococcus aureus [3]): 3.12 µg/mL (≈ 6.09 µM) | MIC (Acinetobacter baumannii [4]): 6.25 µg/mL (≈ 12.2 µM) | MIC (Acinetobacter baumannii [5]): 6.25 µg/mL (≈ 12.2 µM) | MIC (Klebsiella pneumoniae [6]): 6.25 µg/mL (≈ 12.2 µM) | HC50 at 1 h [7]: 132 µg/mL | MIC (Staphylococcus aureus [8]): 6.25 µg/mL (≈ 12.2 µM) | MIC (Pseudomonas aeruginosa): 50 µg/mL (≈ 97.5 µM) | MIC (Escherichia coli): 6.25 µg/mL (≈ 12.2 µM)

C=C(C)[C@@H]1CCC(C)=C[C@H]1c1c(OCC(=O)OCC)cc(CCCCC)cc1OCC(=O)OCC
MIC (Klebsiella pneumoniae [1]): > 50 µg/mL | MIC (Staphylococcus aureus [2]): > 50 µg/mL | MIC (Staphylococcus aureus [3]): > 50 µg/mL | MIC (Acinetobacter baumannii [4]): > 50 µg/mL | MIC (Acinetobacter baumannii [5]): > 50 µg/mL | MIC (Klebsiella pneumoniae [6]): > 50 µg/mL | HC50 at 1 h [7]: > 200 µg/mL | MIC (Staphylococcus aureus [8]): > 50 µg/mL | MIC (Pseudomonas aeruginosa): > 50 µg/mL | MIC (Escherichia coli): > 100 µg/mL

C=C(C)[C@@H]1CCC(C)=C[C@H]1c1c(OCCCCNC(=N)N)cc(CCCCC)cc1OCCCCNC(=N)N
MIC (Klebsiella pneumoniae [1]): 0.78 µg/mL (≈ 1.44 µM) | MIC (Staphylococcus aureus [2]): 0.39 µg/mL (≈ 0.721 µM) | MIC (Staphylococcus aureus [3]): 0.78 µg/mL (≈ 1.44 µM) | MIC (Acinetobacter baumannii [4]): 0.78 µg/mL (≈ 1.44 µM) | MIC (Acinetobacter baumannii [5]): 1.56 µg/mL (≈ 2.88 µM) | MIC (Klebsiella pneumoniae [6]): 1.56 µg/mL (≈ 2.88 µM) | HC50 at 1 h [7]: 98.4 µg/mL | MIC (Staphylococcus aureus [8]): 0.78 µg/mL (≈ 1.44 µM) | MIC (Pseudomonas aeruginosa): 6.25 µg/mL (≈ 11.6 µM) | MIC (Escherichia coli): 0.78 µg/mL (≈ 1.44 µM)

C=C(C)[C@@H]1CCC(C)=C[C@H]1c1c(OCCCCCCCCCCN)cc(CCCCC)cc1OCCCCCCCCCCN
MIC (Klebsiella pneumoniae [1]): > 50 µg/mL | MIC (Staphylococcus aureus [2]): > 50 µg/mL | MIC (Staphylococcus aureus [3]): > 50 µg/mL | MIC (Acinetobacter baumannii [4]): > 50 µg/mL | MIC (Acinetobacter baumannii [5]): > 50 µg/mL | MIC (Klebsiella pneumoniae [6]): > 50 µg/mL | HC50 at 1 h [7]: > 200 µg/mL | MIC (Staphylococcus aureus [8]): > 50 µg/mL | MIC (Pseudomonas aeruginosa): > 50 µg/mL | MIC (Escherichia coli): > 50 µg/mL
